From patent US20040023884A1, “Biologically active peptides from functional domains of bactericidal/permeability-increasing protein and uses thereof” (priority 1993, published 2004)
Square brackets hold non-standard residues; d marks the D form. Ends that are not written are not given here. Peptide text beside a SMILES is read from it. 1Nal = N[C@@H](Cc1cccc2ccccc12)C(=O)O; 3Pal = N[C@@H](Cc1cccnc1)C(=O)O

Experiments:
[1] = test system: Candida albicans; format: cell-based
[2] = 3H-heparin binding assay (affinity and capacity); conditions: for Heparin Capacity: heparin bound at saturation; for Kd: read-out: Heparin Affinity
Description: Briefly, each fragment was added to wells of a 96-well microtiter plate having a polyvinylidene difluoride membrane (Immunobilon-P, Millipore, Bedford, Mass.) disposed at the bottom of the wells. […] Positive control wells contained varying amounts of rBPI23. […] DuPont-NEN, Wilmington, Del.) were made in the blocking buffer and incubated in the BPI peptide-containing wells for one hour at 4° C. The unbound heparin was aspirated and the wells were washed three times with blocking buffer, dried and removed for quantitation in a liquid scintillation counter (Model 1217, LKB, Gaithersburg, Md.). Although BSA in the blocking buffer did show a low affinity and capacity to bind heparin, this was considered physiologically irrelevant and the background was routinely subtracted from the test compound signal.

[3] = test system: rough mutant E. coli J5 bacteria; test: Radial diffusion bactericidal assay, E. coli J5; format: cell-based; conditions: radial diffusion; PROBIT analysis; E. coli J5 (rough)
Description: BPI proteolytic fragments produced according to Example 1 were screened for bactericidal effects using rough mutant E. coli J5 bacteria in a radial diffusion assay. Specifically, an overnight culture of E. coli J5 was diluted 1:50 into fresh tryptic soy broth and incubated for 3 hours at 37° C. to attain log phase growth of the culture. Bacteria were then pelleted at 3,000 rpm for 5 minutes in a Sorvall RT6000B centrifuge (Sorvall Instruments, Newton, Conn.). 5 mL of 10 mM sodium phosphate buffer (pH 7.4) was added and the preparation was re-pelleted. […] The bacteria were diluted to 4×10^6 CFU/mL in 10 mL of molten underlayer agarose (at approximately 45° C.) and inverted repeatedly to mix in 15 mL polypropylene tubes conventionally used for this purpose.
The entire contents of such tubes were then poured into a level square petri dish and distributed evenly by rocking the dish side-to-side. […] A series of wells were then punched into the hardened agarose using a sterile 3 mm punch attached to a vacuum apparatus. The punch was sterilized with 100% alcohol and allowed to air dry prior to use to avoid contaminating the bacterial culture.
5 or 10 μL of each of the BPI fragments were carefully pipetted into each well. As a negative control, dilution buffer (pH 8.3) was added to a separate well, and rBPI23 at concentrations of 5 μg/mL and 1 μg/mL were also added as positive controls. Each plate was incubated at 37° C. for 3 hours, and then 10 mL of molten overlayer agarose (at approximately 45° C.) was added into the level petri dish, allowed to harden and incubated overnight at 37° C. […] The bacterial zones were measured with a micrometer.

[4] = test system: Staphylococcus aureus; test: Radial diffusion bactericidal assay, Staphylococcus aureus; format: cell-based; conditions: radial diffusion; PROBIT analysis; S. aureus
[5] = test system: E. coli 0111:B4 (smooth) bacteria; test: Radial diffusion bactericidal assay, E. coli 0111:B4; format: cell-based; conditions: radial diffusion; PROBIT analysis; E. coli O111:B4 (smooth)

| Compound | MIC C. alb [1] | Heparin Capacity [2] | Kd [2] | pmol added to well to achieve a 30 mm^2 bactericidal zone, E. coli J5 [3] | pmol added to well to achieve a 30 mm^2 bactericidal zone, S. aureus [4] | pmol added to well to achieve a 30 mm^2 bactericidal zone, E. coli O111:B4 [5] | Heparin Affinity [2] |
| --- | --- | --- | --- | --- | --- | --- | --- |
| CC(C)C[C@H](NC(=O)[C@H](Cc1ccccc1)NC(=O)[C@H](CCCNC(=N)N)NC(=O)[C@H](Cc1cccc2ccccc12)NC(=O)[C@H](Cc1cccc2ccccc12)NC(=O)[C@H](C)NC(=O)[C@H](CCCCN)NC(=O)[C@H](Cc1c[nH]c2ccccc12)NC(=O)[C@H](CCCCN)NC(=O)[C@H](CCCCN)NC(=O)[C@H](CC(C)C)NC(=O)[C@H](Cc1ccccc1)NC(=O)[C@H](CCCNC(=N)N)NC(=O)[C@H](Cc1cccc2ccccc12)NC(=O)[C@H](Cc1cccc2ccccc12)NC(=O)[C@H](C)NC(=O)[C@H](CCCCN)NC(=O)[C@H](Cc1c[nH]c2ccccc12)NC(=O)[C@@H](N)CCCCN)C(=O)N[C@@H](CCCCN)C(=O)O [BPI.156] (H-KWKA[1Nal][1Nal]RFLKKWKA[1Nal][1Nal]RFLK-OH; N-terminus and C-terminus assumed) | >100.00 µg/mL | – | – | – | – | – | – |
| CC[C@H](C)[C@H](N)C(=O)N[C@@H](CCCCN)C(=O)N[C@H](C(=O)N[C@@H](CO)C(=O)NCC(=O)N[C@@H](CCCCN)C(=O)N[C@@H](Cc1c[nH]c2ccccc12)C(=O)N[C@@H](CCCCN)C(=O)N[C@@H](C)C(=O)N[C@@H](Cc1cccc2ccccc12)C(=O)N[C@@H](Cc1cccc2ccccc12)C(=O)N[C@@H](CCCNC(=N)N)C(=O)N[C@@H](Cc1ccccc1)C(=O)N[C@@H](CC(C)C)C(=O)N[C@@H](CCCCN)C(=O)N[C@@H](CCCCN)C(=O)N[C@@H](CO)C(=O)N[C@@H](CCCCN)C(=O)N[C@H](C(=O)NCC(=O)N[C@@H](Cc1c[nH]c2ccccc12)C(=O)N[C@@H](CC(C)C)C(=O)N[C@H](C(=O)N[C@@H](CCC(N)=O)C(=O)N[C@@H](CC(C)C)C(=O)N[C@@H](Cc1ccccc1)C(=O)N[C@@H](Cc1c[nH]cn1)C(=O)N[C@@H](CCCCN)C(=O)N[C@@H](CCCCN)C(=O)O)[C@@H](C)CC)C(C)C)[C@@H](C)CC [BPI.158] (H-IKISGKWKA[1Nal][1Nal]RFLKKSKVGWLIQLFHKK-OH; N-terminus and C-terminus assumed) | >100.00 µg/mL | – | – | – | – | – | – |
| GWLIQLFHKKIESALRNKMNS [BPI.55] | – | 166.1 ng | 368 nM | 299.36 pmol | 28,204.45 pmol | 3,702.60 pmol | – |
| IAISGKWKAQKRFLA [BPI.60] | – | 120.3 ng | 64.8 nM | 3,782.80 pmol | b (no detectable activity up to 5 μg/well) | b (no detectable activity up to 5 μg/well) | – |
| IKISGAWAAQKRFLK [BPI.59] | – | 106.7 ng | 175 nM | 3,718.00 pmol | b (no detectable activity up to 5 μg/well) | b (no detectable activity up to 5 μg/well) | – |
| IKISGKAβ-(1-naphthyl)KAQKRFLK (IKISGK[1Nal]KAQKRFLK) [BPI.67] | – | 250.4 ng | 108 nM | 2,424.30 pmol | b (no detectable activity up to 5 μg/well) | b (no detectable activity up to 5 μg/well) | – |
| IKISGKAβ-(3-pyridyl)KAQKRFLK (IKISGK[3Pal]KAQKRFLK) [BPI.70] | – | 59.2 ng | 145 nM | b (no detectable activity up to 5 μg/well) | b (no detectable activity up to 5 μg/well) | b (no detectable activity up to 5 μg/well) | – |
| IKISGKFKAQKRFLK [BPI.61] | – | 85.2 ng | 58.3 nM | 86,541.00 pmol | b (no detectable activity up to 5 μg/well) | b (no detectable activity up to 5 μg/well) | – |
| IKISGKWDKAQKRFLK [BPI.66] | – | 111.6 ng | 296 nM | 5,846.50 pmol | b (no detectable activity up to 5 μg/well) | b (no detectable activity up to 5 μg/well) | – |
| IKISGKWKAKKRFLK [BPI.79] | – | 110.2 ng | 199 nM | 5,827.30 pmol | b (no detectable activity up to 5 μg/well) | b (no detectable activity up to 5 μg/well) | – |
| IKISGKWKAKQRFLK [BPI.56] | – | 135.5 ng | 115 nM | 1,387.00 pmol | b (no detectable activity up to 5 μg/well) | b (no detectable activity up to 5 μg/well) | – |
| IKISGKWKAQKRAβ-(3-pyridyl)LK [BPI.72] | – | 102.8 ng | 145 nM | 2,925.67 pmol | b (no detectable activity up to 5 μg/well) | b (no detectable activity up to 5 μg/well) | – |
| IKKRAISFLGKKWQK [BPI.75] | – | 119.8 ng | 96 nM | 2,708.40 pmol | 9,508.60 pmol | b (no detectable activity up to 5 μg/well) | – |
| KSKVKWLIKLFFKFKSKVKWLIKLFFKF [BPI.101] | – | 210.9 ng | 1900 nM | 1,329.30 pmol | 4,388.20 pmol | 3,631.70 pmol | – |
| KSKVKWLIKLFHKK [BPI.100] | – | 314.0 ng | 2930 nM | 407.74 pmol | b (no detectable activity up to 5 μg/well) | 7,342.90 pmol | – |
| KWKAQWRFLKKWKAQWRFLKKWKAQWRFLK [BPI.99] | – | 971.4 ng | 9100 nM | 722.90 pmol | 37,942,676.00 pmol | 60,037.52 pmol | – |
| QQGTAALQKELKRIK [BPI.1] | – | no binding | – | b (no detectable activity up to 5 μg/well) | b (no detectable activity up to 5 μg/well) | b (no detectable activity up to 5 μg/well) | no binding |
